From publication PMC12677843, “Multidisciplinary Preclinical Investigations on Ferrocenyl, Ruthenocenyl, and Benzyl Derivatives of Niridazole as New Drug Candidates against Schistosomiasis” (Chemmedchem, 2025)
Entries after “also recorded” stand apart in the source; their conditions may differ.

Legend:
[1] = system: adult S. mansoni; assay: In vitro drug sensitivity assay on adult S. mansoni (microscopic viability scoring); type: cell-based, Schistosoma mansoni; conditions: for drug effect at 50 µM on adult S. mansoni: 72 h incubation, normalized to DMSO control, active if ≥60%; for EC50: 72 h drug exposure, 37 °C, 5% CO2, read-out: EC50 on adult S. mansoni, 72 h
Experimental: Figure 3 In vitro activity at 50 µM of the 12 compounds on adult S. mansoni. Adult schistosomes were incubated in culture media for 72 h at 37 °C and 5% CO2 with either compound (50 µM) or a DMSO (0.5%) control. The viability of the worms was microscopically evaluated and scored (0—3, in 0.5 steps) every 24 h. Results are from two independent experiments, each performed in duplicate. Drug activities were normalized to the DMSO controls. Data represent mean ± SD in percentage of DMSO control. […]
In vitro evaluation on adult S. mansoni
After a week for acclimatization to the new environment with controlled conditions (temperature: 22 °C ± 2 °C, humidity: 50 % ± 10 %, 12:12 h light/dark photocycle), four-week-old female NMRI mice (Charles River, Sulzfeld, Germany) were subcutaneously infected with approximately 100 cercariae to establish the S. mansoni infection. In the S. mansoni infected mice the worms were allowed to develop for 7 weeks into the adult stage, before they were extracted from the mesenteric veins of the euthanized mice. The adult worms were placed into RPMI 1640 (Gibco, Waltham MA, USA) medium supplemented with 1 % penicillin/streptomycin mixture and 5 % iFCS at 37 °C and 5 % CO 2. The drug sensitivity assay was set up in a 24-well plate with two wells containing each two pairs of S. mansoni worms per compound and concentration.
The final volume per well was 2 mL, containing the culture medium and the corresponding amount of drug dissolved in DMSO. The maximum concentration tested was 50 µM, corresponding to 0.5 % DMSO, to which all the other wells were adapted […]
to, so that all test concentrations contained always the same amount of DMSO.
Additionally, 2 wells with negative controls containing only DMSO and the culture medium were included. After an incubation period of 72 h at 37 °C and 5 % CO 2, the worms were microscopically evaluated. The drug effect was determined 24, 48 and 72 h post-exposure based on the phenotype of the adult worms, using a viability scale ranging from three referring to viable, motile worms with no change in their tegument to zero standing for the death of the worms.
All described in vitro studies with mice involved, were conducted at the Swiss Tropical and Public Health Institute, first in Basel, later in Allschwil, and had the approval by the corresponding veterinary authorities of the Canton Basel-Stadt (permit no. 2070)

[2] = system: juvenile S. mansoni; assay: In vitro drug sensitivity assay on juvenile S. mansoni; type: cell-based, Schistosoma mansoni; conditions: 72 h incubation, 37 °C, 5% CO2
Experimental: Juvenile worms were gained through cultivation of NTS as previously described. 10 In short, NTS were obtained as described above, then directly after the mechanical transformation process the newly transformed schistosomula were placed in a special culturing medium. The culture medium consists of Panserin 401, w: L-Glutamine, serum free all-round medium (Pan Biotech, Aidenbach, Germany) supplemented with 20 % human serum and 500 U/mL penicillin, […] streptomycin (LuBioScience, Switzerland). 96-well transparent polystyrene flat bottom plates were used for the in vitro growth procedure, with 40 to 60 NTS per well in 100 µL culture medium. The bordering wells of the plate were filled solely with medium to counteract evaporation and to keep the humidity as steady as possible. The plates were incubated for 21 days at 5 % CO2 and at 37 °C, with regular medium changes every 3 to 4 days. After the 21 days culturing period, the schistosomulae developed into juveniles. For the drug sensitivity assay, juvenile worms were incubated over 72 h (5 % CO 2 and 37 °C) with the test compound in the same medium, as used for the culturing process. In a 96-well plate, 250 µL medium containing the test compound and six juvenile worms, ideally of both sexes were placed in each well. All compounds were tested twice independently at 50, 10, 5 and 1 µM in duplicates. The viability of the worms was evaluated microscopically after 24, 48 and 72 h of continuous drug exposure using the same phenotypic screening method as described before. […]

[3] = system: S. mansoni newly transformed schistosomula (NTS); assay: In vitro evaluation on newly transformed schistosomula (NTS); type: cell-based, Schistosoma mansoni; conditions: for EC50: 72 h incubation, 37 °C, 5% CO2
Experimental: 2. Experimental section for biological experiments
Stock solutions of the test compounds
Stock solution of a concentration of 10 mM in pure DMSO (Sigma-Aldrich, Switzerland) were prepared of the 12 compounds, these stock solutions were used for all in vitro evaluations from activity tests in S. mansoni to the cytotoxic determinations in HUH7 hepatocyte-derived carcinoma cells, and in SH-SY5Y neuroblastoma cells.
The solutions were thoroughly vortexed and sonicated to enable a good dissolution of the compounds and homogenous stock solutions.
2.1 In vitro evaluations in S. mansoni
In vitro evaluation on newly transformed schistosomula (NTS)
To obtain newly transformed schistosomula (NTS) the lifecycle of S. mansoni (strain originates from West Africa, Liberia) is maintained at the Swiss Tropical and Public Health Institute (Swiss TPH). As previously described, cercariae are collected from infected Biomphalaria glabrata snails and then mechanically transformed into NTS. 8 After HBSS (Gibco, Waltham MA, USA) washing to get rid of the detached tails, the NTS were kept overnight (min. 12 h, max. 24 h) in culture medium at 37 °C and 5 % CO2 to complete their transformation process, before the drug sensitivity assay was started. The drug assays were performed in the same culture medium consisting of medium M199 (Gibco, Waltham MA, USA) supplemented with 5 % v/v inactivated fetal calf serum (iFCS; Bioconcept AG, Allschwil, Switzerland), 1% antibiotics mixture developed by Mäser et al., 9 and 1 % penicillin 10,000 U/mL, and streptomycin 10 mg/mL solution (Sigma-Aldrich, Buchs, Switzerland). The assay was performed in a 96-well plate, with 30−40 NTS per well in a final volume of 250 μL. NTS incubated in culture medium containing 0.5 % DMSO but no drug served as negative controls.
Microscopic evaluation was performed after 24, 48 and 72 h of incubation of the parasites at 37 °C and 5 % CO 2. Their overall viability was scored from 0 (death) to 3 (full viability) by a phenotypic screening method based on their motility, morphology, […]
and granularity. […]

[4] = Stability of A2 in DMSO-d6 with D2O (4:1) by 1H NMR; type: physicochemical; conditions: Figure S36; DMSO-d6 with D2O (4:1, v/v)
Experimental: Figure S31 DEPT spectrum of C2
1H NMR spectra for stability
Preparation of the control samples for 1H NMR analysis: Compounds B1, D1, A3 and
C2 were dissolved in DMSO- d6. Compound A2 was dissolved in DMSO- d6 with D2O
(4:1, v/v). NMR spectra were recorded in deuterated solvents on Bruker Avance-400
in the room temperature for 0, 6, 24, 30 and 48 hours or 0, 3, 6 and 24 hours. […]

[5] = system: SH-SY5Y cells; assay: SYTOX cell viability assay, SH-SY5Y; type: cell-based, human; conditions: 20 µM, 24 h, serum-free charcoal-treated medium, vs DMSO control (0.2%), mean
Experimental: The SYTOX cell viability assay was performed in SHSY5Y cells. Cells were treated with either compound (20 µM) or DMSO control (0.2%) for 24 h at 37 °C and 5% CO2 in serum‐free charcoal‐treated medium. Results were normalized to the DMSO control. Mean ± SD was calculated from three independent experiments, each performed in quadruplicate. […]
serum-free media containing either treatment at a concentration of 20 µM or DMSO (ITW Reagents Cat A3672) control (0.2 %).
Following 24 h of incubation, 12.5 μL of an XTT/phenazine methosulfate (PMS) (XTT Sigma Aldrich cat X4626, PMS Serva CAT: 3203) 0.02solution (1 mg/mL XTT and 7.5 μg/mL PMS) was added to each well. Absorbance was measured using a microplate reader (Biotek Synergy HT) at 450 nm (signal) and 650 nm (background), 2 h after the addition of the XTT/PMS solution. Individual backgrounds were subtracted and all results were normalized to DMSO control. Mean ± SD was determined from three independent experiments, each performed in quintuplicate.
SYTOX cell viability assay
The cytotoxic potential was additionally evaluated using the staining-based SYTOX viability assay. […] Data was acquired on the BioTeck Cytation5 microscope and evaluated by the manufacturer’s software (Gen5 Image Prime Version 3.12). […] Mean ± SD was determined from three independent experiments, each performed in quadruplicate. […]

Structure (SMILES) | mean drug effect at 10 µM on adult S. mansoni, 24 h ([1]; 10 µM, 24 h, in percentage of DMSO control) | mean drug effect at 10 µM on adult S. mansoni, 48 h ([1]; 10 µM, 48 h, in percentage of DMSO control) | mean drug effect at 10 µM on adult S. mansoni, 72 h ([1]; 10 µM, 72 h, in percentage of DMSO control) | drug effect at 50 µM on adult S. mansoni [1] | EC50 [1] | EC50 [2] | EC50 [3] | stability under warm and moist conditions [4] | reduction of SH-SY5Y cell viability (SYTOX) [5] | drug effect at 50 µM on S. mansoni NTS ([3]; highest tested concentration 50 µM)
O=C([c-]1cccc1)N1CCN(c2ncc([N+](=O)[O-])s2)C1=O.[Fe+2].c1cc[cH-]c1 [Compound A2] | 36.97% | 46.61% | 56.40% | more active | 8.2 µM | 6.35 µM | 2 µM | stable | – | –
O=C(Nc1ncc([N+](=O)[O-])s1)[c-]1cccc1.[Fe+2].c1cc[cH-]c1 [Compound A1] | – | – | – | No drug effect | > 50 µM | – | > 50 µM | – | did not alter SH‐SY5Y cell viability; also recorded: inactive | No drug effect
